Structures can show the parent of a compound that is named as a salt. Where two headings read alike, the source gives them in different places.
Columns and labels:
Format in all cases: cell-based
AsPC-1 = experiment: Cell viability analysis (WST-1), AsPC-1; conditions: Homo sapiens, ASPC1, 72 h, Table 4, repeated experiments, drug 10 μM, read-out: survival rate (viability) of cancer cells, AsPC-1
Protocol: (§1) Subculture the different types of cancer cells. The cancer cells includes lung cancer, gastric cancer, hepatic cancer, colon cancer, skin cancer, cervical cancer, prostate cancer, bladder cancer, breast cancer, leukemia, pancreatic cancer, ovarian cancer, tongue cancer, osteosarcoma, and renal cancer. The cell numbers were counted and reseed as 2×10^6 in cell culture plate/flask. Then, the culture medium for culturing the cell lines was added to a volume of 10 ml, and the cells were cultured for 2-3 days. Then, the cells were suspended for loading into 96-well plates. The cell number was 3000 cells and the volume of the culture medium was 100 ul each well.
(§2) Removing the original culture medium from 96-well plate. Then add 100 μl of commercially drug at a concentration of 10 μM per well. After 72 hours, add the diluted WST-1 reagent to the well with 100 μl/well, and the diluted WST-1 reagent was acquired from the dilution of 9:1 medium and WST-1 stock reagent. Finally, the total volume of each well are 200 μl/well. Culture the 96-well plate at 37° C. for 30 to 90 minutes. Detecting and calculating the survival rate of each cancer cells with an ELISA reader at OD450 nm. The lower viability of cancer cells represents better inhibition effect via the drugs. Otherwise, the higher viability of cancer cells represents worse inhibition effect via the drugs.
(§3) According to the above mentioned cardiovascular drugs for cancer growth inhibition in Table 3, the inventors took the repeat experiments for the cardiovascular drugs to check the growth inhibitory effects of cancer cells by the cardiovascular drugs. […] 4.

[1] = tested on: MCF7 (Mammary Gland, Adenocarcinoma); experiment: Cell viability analysis (WST-1), MCF7; conditions: Homo sapiens
BCC = experiment: Cell viability analysis (WST-1), BCC; conditions: BCC, 72 h, Table 4, repeated experiments, drug 10 μM, read-out: survival rate (viability) of cancer cells, BCC
[2] = tested on: MKN-45 (Gastric Adenocarcinoma); experiment: Cell viability analysis (WST-1), MKN-45; conditions: Homo sapiens
[3] = tested on: PC3 (Prostate Adenocarcinoma); experiment: Cell viability analysis (WST-1), PC3
[4] = tested on: TSGH-8301 (Urinary Bladder Carcinoma); experiment: Cell viability analysis (WST-1), TSGH-8301
[5] = tested on: AGS (Gastric Adenocarcinoma); experiment: Cell viability analysis (WST-1), AGS
[6] = tested on: HCT116 (Colorectal Carcinoma); experiment: Cell viability analysis (WST-1), HCT116; conditions: Homo sapiens
SAS = experiment: Cell viability analysis (WST-1), SAS; conditions: 72 h, Table 4, repeated experiments, drug 10 μM, read-out: survival rate (viability) of cancer cells, SAS
Protocol: as §1, §2, §3

BxPC-3 = experiment: Cell viability analysis (WST-1), BxPC-3; conditions: Homo sapiens, BXPC-3, 72 h, Table 4, repeated experiments, drug 10 μM, read-out: survival rate (viability) of cancer cells, BxPC-3
Protocol: as §1, §2, §3

cancer cell lines = experiment: Growth inhibitory effects on the panel of cancer cell lines; conditions: drug 10 μM, 72 hours; for Numbers of inhibitory effect on cancer cell line: count of cancer cell lines inhibited; for inhibition effect on different cancer cell lines (in words): WST-1
[7] = tested on: A549 (Lung Adenocarcinoma); experiment: Cell viability analysis (WST-1), A549; conditions: Homo sapiens, WST-1, OD450 nm, read-out: survival rate (viability) of cancer cells, A549
[8] = tested on: A375 (Amelanotic Melanoma); experiment: Cell viability analysis (WST-1), A375; conditions: Homo sapiens, WST-1, OD450 nm, lower viability = better inhibition, read-out: survival rate (viability) of cancer cells, A375
[9] = tested on: H1650 (Lung Adenocarcinoma); experiment: Cell viability analysis (WST-1), H1650; conditions: Homo sapiens, WST-1, OD450 nm, read-out: survival rate (viability) of cancer cells, H1650
[10] = tested on: HL-60 (Acute Promyelocytic Leukemia); experiment: Cell viability analysis (WST-1), HL-60; conditions: Homo sapiens, HL-60; Table 3; drug 10 μM, 72 hours, WST-1, OD450 nm; read-out: survival rate (viability) of cancer cells, HL-60
[11] = tested on: LoVo (Colorectal Adenocarcinoma); experiment: Cell viability analysis (WST-1), LoVo; conditions: Homo sapiens, LoVo, WST-1, OD450 nm, read-out: survival rate (viability) of cancer cells, LoVo
[12] = tested on: HepG2 (Hepatocellular Carcinoma); experiment: Cell viability analysis (WST-1), HepG2; conditions: Homo sapiens, WST-1, OD450 nm, read-out: survival rate (viability) of cancer cells, HepG2
[13] = tested on: HeLa (Cervix Adenocarcinoma); experiment: Cell viability analysis (WST-1), HeLa; conditions: Homo sapiens, HeLa, WST-1, OD450 nm, read-out: survival rate (viability) of cancer cells, HeLa
[14] = MCF7, 72 h, Table 3, drug 10 μM, WST-1, OD450 nm, read-out: survival rate (viability) of cancer cells, MCF7
[15] = MKN-45, 72 h, Table 3, drug 10 μM, WST-1, OD450 nm, read-out: survival rate (viability) of cancer cells, MKN-45
[16] = 72 h, Table 3, drug 10 μM, WST-1, OD450 nm, read-out: survival rate (viability) of cancer cells, PC3
[17] = A549, 72 h, Table 3, drug 10 μM
[18] = 72 h, Table 3, drug 10 μM, WST-1, OD450 nm, read-out: survival rate (viability) of cancer cells, TSGH
[19] = 72 h, Table 3, drug 10 μM, WST-1, OD450 nm, read-out: survival rate (viability) of cancer cells, AGS
[20] = A-375, 72 h, Table 3, drug 10 μM
[21] = NCI-H1650, 72 h, Table 3, drug 10 μM
[22] = HCT-116, 72 h, Table 3, drug 10 μM, WST-1, OD450 nm, read-out: survival rate (viability) of cancer cells, HCT116 (WT)
[23] = HepG2, 72 h, Table 3, drug 10 μM

| SMILES | Numbers of inhibitory effect on cancer cell line (cancer cell lines) | inhibition effect on different cancer cell lines (in words) (cancer cell lines) | viability at 10 µM [10] [%] | viability at 10 µM [1, 14] [%] | viability at 10 µM [2, 15] [%] | viability at 10 µM [3, 16] [%] | viability at 10 µM [7, 17] [%] | viability at 10 µM [4, 18] [%] | viability at 10 µM [5, 19] [%] | viability at 10 µM [8, 20] [%] | viability at 10 µM [9, 21] [%] | viability at 10 µM [6, 22] [%] | viability at 10 µM ([11]; 72 h, Table 3, drug 10 μM) [%] | viability at 10 µM [12, 23] [%] | viability at 10 µM ([13]; 72 h, Table 3, drug 10 μM) [%] | also measured |
| --- | --- | --- | --- | --- | --- | --- | --- | --- | --- | --- | --- | --- | --- | --- | --- | --- |
| CC1=C(C(=O)OC(C)C)C(c2cccc([N+](=O)[O-])c2)C(C(=O)OC2CN(C(c3ccccc3)c3ccccc3)C2)=C(N)N1 (stereo not shown) [Azelnidipine] |  |  |  |  |  |  |  |  |  |  |  |  |  |  |  | viability at 10 µM (AsPC-1): 53.6%; viability at 10 µM ([1]; MCF7, 72 h, Table 4, repeated experiments, drug 10 μM, WST-1, read-out: survival rate (viability) of cancer cells, MCF-7): 60.8%; viability at 10 µM (BCC): 100%; viability at 10 µM ([2]; MKN-45, 72 h, Table 4, repeated experiments, drug 10 μM, WST-1, read-out: survival rate (viability) of cancer cells, MKN-45): 139%; viability at 10 µM ([3]; 72 h, Table 4, repeated experiments, drug 10 μM, WST-1, read-out: survival rate (viability) of cancer cells, PC-3): 121%; viability at 10 µM ([4]; 72 h, Table 4, repeated experiments, drug 10 μM, WST-1, read-out: survival rate (viability) of cancer cells, TSGH-8301): 115%; viability at 10 µM ([5]; 72 h, Table 4, repeated experiments, drug 10 μM, WST-1, read-out: survival rate (viability) of cancer cells, AGS): 90.2%; viability at 10 µM ([6]; HCT-116, 72 h, Table 4, repeated experiments, drug 10 μM, WST-1, read-out: survival rate (viability) of cancer cells, HCT116): 111%; viability at 10 µM (SAS): 76.8%; viability at 10 µM (BxPC-3): 64.6% |
| CCN(C)C(=O)Oc1cccc([C@H](C)N(C)C)c1 [Rivastigmine tartrate (Exelon), Rivastigmine tartrate] | 0 | significant inhibition effect | 103 |  |  |  |  |  |  |  |  |  |  |  |  | viability at 10 µM ([1]; MCF7, Table 3, drug 10 μM, 72 hours, WST-1, OD450 nm, read-out: survival rate (viability) of cancer cells, MCF7): 67.5%; viability at 10 µM ([2]; MKN-45, Table 3, drug 10 μM, 72 hours, WST-1, OD450 nm, read-out: survival rate (viability) of cancer cells, MKN-45): 93.8%; viability at 10 µM ([3]; Table 3, drug 10 μM, 72 hours, WST-1, OD450 nm, read-out: survival rate (viability) of cancer cells, PC3): 85.4%; viability at 10 µM ([7]; A549, Table 3, drug 10 μM, 72 hours): 65.9%; viability at 10 µM ([4]; Table 3, drug 10 μM, 72 hours, WST-1, OD450 nm, read-out: survival rate (viability) of cancer cells, TSGH): 83.9%; viability at 10 µM ([5]; Table 3, drug 10 μM, 72 hours, WST-1, OD450 nm, read-out: survival rate (viability) of cancer cells, AGS): 63.6%; viability at 10 µM ([8]; A-375, Table 3, drug 10 μM, 72 hours): 76.1%; viability at 10 µM ([9]; NCI-H1650, Table 3, drug 10 μM, 72 hours): 83.6%; viability at 10 µM ([6]; HCT-116, Table 3, drug 10 μM, 72 hours, WST-1, OD450 nm, read-out: survival rate (viability) of cancer cells, HCT116 (WT)): 118%; viability at 10 µM ([11]; Table 3, drug 10 μM, 72 hours): 85.4%; viability at 10 µM ([12]; HepG2, Table 3, drug 10 μM, 72 hours): 93.7%; viability at 10 µM ([13]; Table 3, drug 10 μM, 72 hours): 90.1% |
| CCCSc1nc(N[C@@H]2C[C@H]2c2ccc(F)c(F)c2)c2nnn([C@@H]3C[C@H](OCCO)[C@@H](O)[C@H]3O)c2n1 [Ticagrelor] | 0 | significant inhibition effect | 93.7 | 83.1 | 114 | 84.1 | 85 | 86 | 100 | 60.1 | 76 | 73.6 | 79.6 | 94.5 | 126 |  |
| Clc1ccccc1CN1CCc2sccc2C1 [Ticlopidine HCl] | 0 | significant inhibition effect | 102 | 96.8 | 72.7 | 69.9 | 84.9 | 112 | 77.2 | 86.5 | 61.6 | 71.9 | 90.5 | 97.4 | 81.9 |  |
| NS(=O)(=O)c1cc2c(cc1Cl)NC(C(Cl)Cl)NS2(=O)=O (stereo not shown) [Trichlormethiazide (Achletin), Trichlormethiazide] | 0 | significant inhibition effect | 102 | 64.2 | 71 | 122 | 106 | 95.6 | 79.3 | 128 | 76.7 | 112 | 107 | 95.1 | 85.7 |  |
| CC(=O)NS(=O)(=O)c1ccc(N)cc1 [sulfacetamide sodium] | 0 | significant inhibition effect | 112 | 110 | 118 | 70.8 | 70 | 120 | 81.4 | 64.9 | 79.8 | 76.7 | 81.8 | 98.7 | 75.9 |  |

From patent publication US20170304388A1, “NEW INDICATION OF CARDIOVASCULAR DRUGS FOR PREPARATION OF CANCER INHIBITION PHARMACEUTICAL COMPOSITION” (LAUNX BIOMEDICAL CO., LTD., priority 2014, published 2017)
